Experiments:
[1] = cited from earlier work
[2] = cited from earlier work; remark: listed apart in the source
[3] = tested on: patients with and without the E508K variant of HNF1A; assay: Study of acute glipizide response in humans with the HNF1A E508K variant; assay type: in vivo, human; conditions: carriers vs non-carriers of HNF1A E508K, preliminary results, statistical analysis ongoing
Protocol: Acute and medium-term response to glipizide in patients with and without the E508K variant of HNF1A will be measured. The study will consist of two phases. Patients will be invited to participate in both, but the research subject will have the freedom to choose only one of the stages of the study.
Open Study of a Single Dose of Glipizide (5 mg) in Patients With and Without the E508K Variant of HNF1A
Main Objective: To compare the change in glucose between carriers and noncarriers after a single oral administration of 5 mg of glipizide. […]
Eligible patients will discontinue antidiabetic therapy and initiate a washout period of 7 days, during which they will be monitored for hyperglycemia requiring re-initiation of antidiabetic therapy. […]
Patients will be admitted to the clinical research center after fasting for 8 hours. […] The concentrations of glucose, insulin and other hormones (GLP1) and metabolites will be measured at 15, 30, 60, 90, 120, 180, and 240 minutes after administration of 5 mg of glipizide. In the event of developing symptoms of hypoglycemia, blood glucose will be measured immediately. […]

Compound | rate of gastrointestinal adverse events ([1]; at the proposed dose) | life ([2]; described as short) | time until it starts acting ([2]; oral) | hypoglycaemic response to glipizide in carriers of the E508K HNF1A variant [3] | hypoglycaemic response to glipizide in carriers of the E508K HNF1A variant ([3]; listed as glipizide) | risk of inducing severe hypoglycemia ([1]; described as low)
CN(C)C(=N)N=C(N)N [Metformin] | low rate | – | – | – | – | –
Cc1cnc(C(=O)NCCc2ccc(S(=O)(=O)NC(=O)NC3CCCCC3)cc2)cn1 [Glipizide] | – | 2 to 8 h | ≤ 30 min | greater response | great hypoglycaemic response | 0.19-2.5 episodes per 1000 patient-years

From patent US11578368B2, “Methods, tools and systems for the assessment, prevention, management and treatment selection for type 2 diabetes” (Patia Biopharma, S.A. De C.V., priority 2015, dated 2023)
